Experimental data from ChEMBL document CHEMBL3885861, “Open TG-GATES”.

Species on record: Rattus norvegicus
Assay: Open TG-GATES - Regimen: Single
Type: toxicity, organism-based, Sprague-Dawley
Set-up: regimen Single, gender Male, age 6 weeks
Settings: in vivo, po, route gavage; for APTT / Bas / Eos / Fbg / Hb / Ht / Lym / MCH / MCHC / MCV / Mono / Neu / PT / Plat / RBC / Ret / WBC: tissue Blood; for KIDNEY_L / KIDNEY_R / KIDNEY_TOTAL: tissue Kidney; for LIVER: tissue Liver; for A/G / ALP / ALT / AST / BUN / CRE / Ca / Cl / DBIL / GLC / IP / K / LDH / Na / PL / RALB / TBIL / TC / TG / TP / gamma-GTP: tissue Plasma
[1] = 50 mg/kg, 3 h, dose level Middle
[2] = 50 mg/kg, 6 h, dose level Middle
[3] = 50 mg/kg, 9 h, dose level Middle
[4] = 50 mg/kg, 24 h, dose level Middle
[5] = 150 mg/kg, 3 h, dose level High
[6] = 150 mg/kg, 6 h, dose level High
[7] = 150 mg/kg, 9 h, dose level High
[8] = 150 mg/kg, 24 h, dose level High

CC(C)C(=O)Nc1ccc([N+](=O)[O-])c(C(F)(F)F)c1 [FLUTAMIDE]
TERMINAL_BW [1]: 209.6 g
APTT [1]: 18.6 s
Bas [1]: 0%
Eos [1]: 1%
Fbg [1]: 216.6 mg/dL
Hb [1]: 13.4 g/dL
Ht [1]: 39.1%
Lym [1]: 73.6%
MCH [1]: 21.5 pg
MCHC [1]: 34.2%
MCV [1]: 63 fL
Mono [1]: 2.8%
Neu [1]: 21.4%
PT [1]: 12.7 s
Plat [1]: 136.9 x10_4/uL
RBC [1]: 621 x10_4/ul
Ret [1]: 7.8%
WBC [1]: 82.5 x10_2/uL
KIDNEY_L [1]: 0.9 g
KIDNEY_R [1]: 0.9 g
KIDNEY_TOTAL [1]: 1.8 g
LIVER [1]: 9.6 g
A/G [1]: 1.7
ALP [1]: 785.4 IU/L
ALT [1]: 35.8 IU/L
AST [1]: 64 IU/L
BUN [1]: 12 mg/dL
CRE [1]: 0.4 mg/dL
Ca [1]: 10.7 mg/dL
Cl [1]: 103.4 meq/L
DBIL [1]: 0.1 mg/dL
GLC [1]: 199.4 mg/dL
IP [1]: 9.9 mg/dL
K [1]: 4.1 meq/L
LDH [1]: 168.4 IU/L
Na [1]: 140 meq/L
PL [1]: 158.6 mg/dL
RALB [1]: 3.5 g/dL
TBIL [1]: 0.2 mg/dL
TC [1]: 80.2 mg/dL
TG [1]: 86.8 mg/dL
TP [1]: 5.6 g/dL
gamma-GTP [1]: 1.2 IU/L
TERMINAL_BW [2]: 209.1 g
APTT [2]: 18.9 s
Bas [2]: 0%
Eos [2]: 0.8%
Fbg [2]: 220.4 mg/dL
Hb [2]: 13.2 g/dL
Ht [2]: 38.3%
Lym [2]: 75%
MCH [2]: 21.8 pg
MCHC [2]: 34.6%
MCV [2]: 63 fL
Mono [2]: 3.4%
Neu [2]: 20.4%
PT [2]: 13 s
Plat [2]: 126.7 x10_4/uL
RBC [2]: 608.4 x10_4/ul
Ret [2]: 7.8%
WBC [2]: 89.5 x10_2/uL
KIDNEY_L [2]: 1 g
KIDNEY_R [2]: 0.9 g
KIDNEY_TOTAL [2]: 1.9 g
LIVER [2]: 8.9 g
A/G [2]: 1.6
ALP [2]: 921.6 IU/L
ALT [2]: 33.4 IU/L
AST [2]: 68.2 IU/L
BUN [2]: 7.6 mg/dL
CRE [2]: 0.4 mg/dL
Ca [2]: 10.6 mg/dL
Cl [2]: 101.6 meq/L
DBIL [2]: 0.082 mg/dL
GLC [2]: 196 mg/dL
IP [2]: 9.9 mg/dL
K [2]: 3.9 meq/L
LDH [2]: 129.2 IU/L
Na [2]: 140 meq/L
PL [2]: 140.8 mg/dL
RALB [2]: 3.4 g/dL
TBIL [2]: 0.1 mg/dL
TC [2]: 79.6 mg/dL
TG [2]: 40.2 mg/dL
TP [2]: 5.5 g/dL
gamma-GTP [2]: 1.2 IU/L
TERMINAL_BW [3]: 207.5 g
APTT [3]: 18.7 s
Bas [3]: 0%
Eos [3]: 1%
Fbg [3]: 227 mg/dL
Hb [3]: 13.1 g/dL
Ht [3]: 38.6%
Lym [3]: 76.6%
MCH [3]: 21.9 pg
MCHC [3]: 34.1%
MCV [3]: 64.3 fL
Mono [3]: 3%
Neu [3]: 18.6%
PT [3]: 13 s
Plat [3]: 135.1 x10_4/uL
RBC [3]: 601.2 x10_4/ul
Ret [3]: 8.2%
WBC [3]: 75 x10_2/uL
KIDNEY_L [3]: 0.9 g
KIDNEY_R [3]: 0.9 g
KIDNEY_TOTAL [3]: 1.8 g
LIVER [3]: 8.6 g
A/G [3]: 1.7
ALP [3]: 922.4 IU/L
ALT [3]: 30.2 IU/L
AST [3]: 61.2 IU/L
BUN [3]: 9.8 mg/dL
CRE [3]: 0.3 mg/dL
Ca [3]: 10.3 mg/dL
Cl [3]: 103.8 meq/L
DBIL [3]: 0.088 mg/dL
GLC [3]: 207.4 mg/dL
IP [3]: 9.9 mg/dL
K [3]: 3.8 meq/L
LDH [3]: 123.2 IU/L
Na [3]: 140.6 meq/L
PL [3]: 153.2 mg/dL
RALB [3]: 3.4 g/dL
TBIL [3]: 0.2 mg/dL
TC [3]: 81.2 mg/dL
TG [3]: 53.6 mg/dL
TP [3]: 5.4 g/dL
gamma-GTP [3]: 1.2 IU/L
TERMINAL_BW [4]: 216.8 g
APTT [4]: 18.2 s
Bas [4]: 0%
Eos [4]: 1%
Fbg [4]: 209.6 mg/dL
Hb [4]: 13.7 g/dL
Ht [4]: 40.6%
Lym [4]: 77.6%
MCH [4]: 21.6 pg
MCHC [4]: 33.8%
MCV [4]: 63.7 fL
Mono [4]: 3.2%
Neu [4]: 17%
PT [4]: 12.9 s
Plat [4]: 132.9 x10_4/uL
RBC [4]: 637 x10_4/ul
Ret [4]: 6.7%
WBC [4]: 93 x10_2/uL
KIDNEY_L [4]: 0.9 g
KIDNEY_R [4]: 0.9 g
KIDNEY_TOTAL [4]: 1.8 g
LIVER [4]: 10.5 g
A/G [4]: 1.5
ALP [4]: 950.6 IU/L
ALT [4]: 38.2 IU/L
AST [4]: 65.8 IU/L
BUN [4]: 16 mg/dL
CRE [4]: 0.4 mg/dL
Ca [4]: 10.5 mg/dL
Cl [4]: 103.2 meq/L
DBIL [4]: 0.1 mg/dL
GLC [4]: 203.4 mg/dL
IP [4]: 6.8 mg/dL
K [4]: 3.8 meq/L
LDH [4]: 145.2 IU/L
Na [4]: 140.6 meq/L
PL [4]: 141.2 mg/dL
RALB [4]: 3.4 g/dL
TBIL [4]: 0.2 mg/dL
TC [4]: 80 mg/dL
TG [4]: 83.4 mg/dL
TP [4]: 5.7 g/dL
gamma-GTP [4]: 1 IU/L
TERMINAL_BW [5]: 210.6 g
APTT [5]: 19.7 s
Bas [5]: 0%
Eos [5]: 0.8%
Fbg [5]: 220.4 mg/dL
Hb [5]: 13.3 g/dL
Ht [5]: 38.7%
Lym [5]: 75%
MCH [5]: 21.5 pg
MCHC [5]: 34.4%
MCV [5]: 62.6 fL
Mono [5]: 3.6%
Neu [5]: 19.8%
PT [5]: 13 s
Plat [5]: 121.6 x10_4/uL
RBC [5]: 617.2 x10_4/ul
Ret [5]: 7.5%
WBC [5]: 89.1 x10_2/uL
KIDNEY_L [5]: 0.9 g
KIDNEY_R [5]: 0.9 g
KIDNEY_TOTAL [5]: 1.8 g
LIVER [5]: 9.3 g
A/G [5]: 1.4
ALP [5]: 936.4 IU/L
ALT [5]: 35.4 IU/L
AST [5]: 69.8 IU/L
BUN [5]: 9.4 mg/dL
CRE [5]: 0.4 mg/dL
Ca [5]: 10.6 mg/dL
Cl [5]: 102.8 meq/L
DBIL [5]: 0.1 mg/dL
GLC [5]: 212.8 mg/dL
IP [5]: 9.6 mg/dL
K [5]: 3.7 meq/L
LDH [5]: 158.4 IU/L
Na [5]: 140.8 meq/L
PL [5]: 152 mg/dL
RALB [5]: 3.4 g/dL
TBIL [5]: 0.2 mg/dL
TC [5]: 78 mg/dL
TG [5]: 77.4 mg/dL
TP [5]: 5.7 g/dL
gamma-GTP [5]: 1.4 IU/L
TERMINAL_BW [6]: 207.7 g
APTT [6]: 18.6 s
Bas [6]: 0%
Eos [6]: 0.6%
Fbg [6]: 213 mg/dL
Hb [6]: 13.4 g/dL
Ht [6]: 38.9%
Lym [6]: 79.6%
MCH [6]: 21.3 pg
MCHC [6]: 34.4%
MCV [6]: 62.1 fL
Mono [6]: 1.4%
Neu [6]: 17.8%
PT [6]: 12.7 s
Plat [6]: 127.8 x10_4/uL
RBC [6]: 626.6 x10_4/ul
Ret [6]: 7.3%
WBC [6]: 62.5 x10_2/uL
KIDNEY_L [6]: 0.9 g
KIDNEY_R [6]: 0.9 g
KIDNEY_TOTAL [6]: 1.9 g
LIVER [6]: 9.2 g
A/G [6]: 1.6
ALP [6]: 813 IU/L
ALT [6]: 32.4 IU/L
AST [6]: 63.8 IU/L
BUN [6]: 11.2 mg/dL
CRE [6]: 0.3 mg/dL
Ca [6]: 10.8 mg/dL
Cl [6]: 99.2 meq/L
DBIL [6]: 0.08 mg/dL
GLC [6]: 238.4 mg/dL
IP [6]: 9.7 mg/dL
K [6]: 3.8 meq/L
LDH [6]: 132.6 IU/L
Na [6]: 139.2 meq/L
PL [6]: 148.6 mg/dL
RALB [6]: 3.5 g/dL
TBIL [6]: 0.1 mg/dL
TC [6]: 84.4 mg/dL
TG [6]: 33.2 mg/dL
TP [6]: 5.7 g/dL
gamma-GTP [6]: 1 IU/L
TERMINAL_BW [7]: 207.4 g
APTT [7]: 19.7 s
Bas [7]: 0%
Eos [7]: 0.8%
Fbg [7]: 223.8 mg/dL
Hb [7]: 13.1 g/dL
Ht [7]: 38.5%
Lym [7]: 77.4%
MCH [7]: 21.6 pg
MCHC [7]: 34%
MCV [7]: 63.5 fL
Mono [7]: 3.8%
Neu [7]: 17%
PT [7]: 12.8 s
Plat [7]: 127.2 x10_4/uL
RBC [7]: 605.6 x10_4/ul
Ret [7]: 7.7%
WBC [7]: 69.1 x10_2/uL
KIDNEY_L [7]: 0.9 g
KIDNEY_R [7]: 0.9 g
KIDNEY_TOTAL [7]: 1.8 g
LIVER [7]: 8.7 g
A/G [7]: 1.6
ALP [7]: 711.8 IU/L
ALT [7]: 29.2 IU/L
AST [7]: 57.6 IU/L
BUN [7]: 10.2 mg/dL
CRE [7]: 0.4 mg/dL
Ca [7]: 10.5 mg/dL
Cl [7]: 102.8 meq/L
DBIL [7]: 0.07 mg/dL
GLC [7]: 220.6 mg/dL
IP [7]: 9.1 mg/dL
K [7]: 3.8 meq/L
LDH [7]: 149.4 IU/L
Na [7]: 139.8 meq/L
PL [7]: 165.4 mg/dL
RALB [7]: 3.4 g/dL
TBIL [7]: 0.1 mg/dL
TC [7]: 89.6 mg/dL
TG [7]: 73 mg/dL
TP [7]: 5.7 g/dL
gamma-GTP [7]: 0.8 IU/L
TERMINAL_BW [8]: 213.1 g
APTT [8]: 17.7 s
Bas [8]: 0%
Eos [8]: 1%
Fbg [8]: 218 mg/dL
Hb [8]: 13.1 g/dL
Ht [8]: 39.3%
Lym [8]: 82.4%
MCH [8]: 21.6 pg
MCHC [8]: 33.3%
MCV [8]: 65 fL
Mono [8]: 2.2%
Neu [8]: 13.6%
PT [8]: 12.8 s
Plat [8]: 129.1 x10_4/uL
RBC [8]: 605.4 x10_4/ul
Ret [8]: 6.8%
WBC [8]: 77.2 x10_2/uL
KIDNEY_L [8]: 1 g
KIDNEY_R [8]: 0.9 g
KIDNEY_TOTAL [8]: 1.9 g
LIVER [8]: 9.9 g
A/G [8]: 1.4
ALP [8]: 990.6 IU/L
ALT [8]: 32.6 IU/L
AST [8]: 69.6 IU/L
BUN [8]: 12.2 mg/dL
CRE [8]: 0.4 mg/dL
Ca [8]: 10.5 mg/dL
Cl [8]: 104.4 meq/L
DBIL [8]: 0.082 mg/dL
GLC [8]: 213 mg/dL
IP [8]: 7.5 mg/dL
K [8]: 3.8 meq/L
LDH [8]: 145.4 IU/L
Na [8]: 141.2 meq/L
PL [8]: 175.8 mg/dL
RALB [8]: 3.3 g/dL
TBIL [8]: 0.1 mg/dL
TC [8]: 107.4 mg/dL
TG [8]: 57.4 mg/dL
TP [8]: 5.7 g/dL
gamma-GTP [8]: 0.8 IU/L
